Legend:
[1] = target: T1, Human HDAC9 (Homo sapiens, UniProt Q9UKV0); experiment: HDAC9 biochemical assay, class IIa-specific substrate; settings: read-out: HDAC Isoform IC50 (nM) 9
T1 construct: amino acids 604-1066 with C-terminal His tag; His (C); host or cells: baculovirus expression system
How it was run: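 HDAC9 residues 604-1066 (C-terminal His tag, baculovirus-expressed) at 0.06 ng/ul with 50 μM class IIa substrate Boc-Lys(trifluoroacetyl)-AMC in Tris-HCl pH 8.0 buffer with BSA and 1% DMSO. 30 min at room temperature, then developer added; fluorescence read at 360/460 nm Ex/Em.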

[2] = target: T2, Recombinant human HDAC6 (Homo sapiens, UniProt Q9UBN7); experiment: HDAC6 biochemical assay, AMC-labeled peptide substrate; settings: HDAC6; read-out: HDAC Isoform IC50 (nM) 6
T2 construct: full length, MW=159 kDa; GST (N); host or cells: Sf9 insect cells (baculovirus)
T2 sequence (Q9UBN7 1-1215): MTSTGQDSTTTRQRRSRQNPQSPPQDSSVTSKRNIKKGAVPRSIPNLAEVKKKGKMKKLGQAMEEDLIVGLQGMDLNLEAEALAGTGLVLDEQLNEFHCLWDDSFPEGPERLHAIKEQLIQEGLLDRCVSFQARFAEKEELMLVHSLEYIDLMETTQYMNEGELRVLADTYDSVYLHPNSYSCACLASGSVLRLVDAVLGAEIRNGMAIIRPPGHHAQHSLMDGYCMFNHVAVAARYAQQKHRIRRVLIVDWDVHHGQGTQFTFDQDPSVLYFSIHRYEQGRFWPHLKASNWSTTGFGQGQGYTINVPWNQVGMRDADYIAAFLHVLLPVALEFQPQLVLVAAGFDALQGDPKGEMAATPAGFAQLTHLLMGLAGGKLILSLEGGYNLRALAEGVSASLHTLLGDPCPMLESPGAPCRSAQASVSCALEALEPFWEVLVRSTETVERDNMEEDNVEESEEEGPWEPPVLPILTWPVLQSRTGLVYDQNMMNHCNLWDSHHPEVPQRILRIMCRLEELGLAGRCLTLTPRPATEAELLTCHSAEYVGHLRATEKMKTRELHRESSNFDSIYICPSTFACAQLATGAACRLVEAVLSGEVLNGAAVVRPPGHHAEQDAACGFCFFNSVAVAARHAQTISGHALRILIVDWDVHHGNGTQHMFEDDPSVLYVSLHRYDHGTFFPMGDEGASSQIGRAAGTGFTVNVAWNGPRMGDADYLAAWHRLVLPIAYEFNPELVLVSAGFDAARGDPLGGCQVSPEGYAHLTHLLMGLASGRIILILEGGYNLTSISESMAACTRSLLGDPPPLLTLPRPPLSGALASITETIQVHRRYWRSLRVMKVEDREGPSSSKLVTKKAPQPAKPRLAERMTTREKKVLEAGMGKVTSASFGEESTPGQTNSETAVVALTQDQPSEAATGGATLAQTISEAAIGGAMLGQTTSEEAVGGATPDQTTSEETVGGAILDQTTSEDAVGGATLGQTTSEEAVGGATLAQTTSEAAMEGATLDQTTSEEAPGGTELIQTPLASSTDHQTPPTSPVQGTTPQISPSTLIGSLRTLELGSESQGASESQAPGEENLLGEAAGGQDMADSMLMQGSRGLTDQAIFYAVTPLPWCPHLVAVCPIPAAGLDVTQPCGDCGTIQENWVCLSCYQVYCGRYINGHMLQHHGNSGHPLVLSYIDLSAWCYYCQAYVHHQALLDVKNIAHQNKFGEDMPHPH
How it was run: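 Two-step fluorogenic read-out: enzyme deacetylates 50 μM RHKK(Ac)AMC for 1 h at 30° C in pH 8.0 Tris buffer with BSA and 1% DMSO, then developer cleavage gives signal at Ex 360/Em 460. Enzyme: 0.3 ng/ul recombinant full-length human HDAC6, GST-tagged, Sf9-expressed.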

[3] = target: T3, Human HDAC5 (Homo sapiens, UniProt Q9UQL6); experiment: HDAC5 biochemical assay, class IIa-specific substrate; settings: read-out: HDAC Isoform IC50 (nM) 5
T3 construct: full length with C-terminal His tag, MW=51.1 kDa; His (C); host or cells: baculovirus expression system
How it was run: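 Full-length C-terminal His-tagged HDAC5 from baculovirus (0.05 ng/ul) incubated 30 min at room temperature with 50 μM Boc-Lys(trifluoroacetyl)-AMC and compound, Tris pH 8.0 buffer with BSA, 1% DMSO. Developer then releases AMC; fluorescence 360/460 nm.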

[4] = target: T4, Human HDAC4 (Homo sapiens, UniProt P56524); experiment: HDAC4 biochemical assay, class IIa-specific substrate; settings: read-out: HDAC Isoform IC50 (nM) 4
T4 construct: amino acids 627-1085 with N-terminal GST tag; GST (N); host or cells: baculovirus expression system
How it was run: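 GST-tagged human HDAC4 (aa 627-1085, baculovirus) at 0.004 ng/ul was incubated 30 min at room temperature with 50 μM class IIa-specific substrate BOC-Lys(trifluoroacetyl)-AMC in Tris-HCl pH 8.0 buffer with BSA, 1% DMSO. Developer then released AMC, read at 360/460 nm.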

[5] = target: T5, Human HDAC7 (Homo sapiens, UniProt Q8WUI4); experiment: HDAC7 biochemical assay, class IIa-specific substrate; settings: read-out: HDAC Isoform IC50 (nM) 7
T5 construct: (a.a. 518-end) with N-terminal GST tag; GST (N); host or cells: baculovirus expression system
T5 sequence (Q8WUI4 518-952 limits assumed): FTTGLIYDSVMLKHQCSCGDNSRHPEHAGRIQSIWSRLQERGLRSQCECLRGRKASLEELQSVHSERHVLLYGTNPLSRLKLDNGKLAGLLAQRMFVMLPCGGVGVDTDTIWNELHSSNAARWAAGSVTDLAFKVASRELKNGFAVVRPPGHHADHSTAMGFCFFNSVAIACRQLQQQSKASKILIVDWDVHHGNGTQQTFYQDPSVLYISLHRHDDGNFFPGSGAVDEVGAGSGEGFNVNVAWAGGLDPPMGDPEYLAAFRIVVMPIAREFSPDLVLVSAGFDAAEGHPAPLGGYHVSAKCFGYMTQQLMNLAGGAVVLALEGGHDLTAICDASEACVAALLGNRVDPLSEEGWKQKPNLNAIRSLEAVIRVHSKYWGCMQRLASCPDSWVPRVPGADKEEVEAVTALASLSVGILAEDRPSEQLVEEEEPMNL
How it was run: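 GST-tagged HDAC7 (a.a. 518-end, baculovirus-expressed) at 0.001 ng/ul with 50 μM Boc-Lys(trifluoroacetyl)-AMC substrate, 30 min at room temperature in pH 8.0 Tris buffer with BSA, 1% DMSO final. Developer then releases AMC; fluorescence read at 360/460 nm.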

[6] = target: T6, Human HDAC1 (Homo sapiens, UniProt Q13547); experiment: HDAC1 biochemical assay, AMC-labeled peptide substrate; settings: read-out: HDAC Isoform IC50 (nM) 1
T6 construct: full length with C-terminal His-tag and C-terminal FLAG-tag; His (C); FLAG (C); host or cells: baculovirus expression system
How it was run: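 Baculovirus-expressed full-length human HDAC1 with His and FLAG tags, 0.3 ng/ul, incubated 1 h at 30° C with compound and 50 μM RHKK(Ac)AMC in Tris pH 8.0 buffer with BSA and 1% DMSO. Developer then releases AMC from deacetylated substrate; fluorescence read at 360/460 nm.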

T6 sequence (Q13547 whole entry, canonical isoform): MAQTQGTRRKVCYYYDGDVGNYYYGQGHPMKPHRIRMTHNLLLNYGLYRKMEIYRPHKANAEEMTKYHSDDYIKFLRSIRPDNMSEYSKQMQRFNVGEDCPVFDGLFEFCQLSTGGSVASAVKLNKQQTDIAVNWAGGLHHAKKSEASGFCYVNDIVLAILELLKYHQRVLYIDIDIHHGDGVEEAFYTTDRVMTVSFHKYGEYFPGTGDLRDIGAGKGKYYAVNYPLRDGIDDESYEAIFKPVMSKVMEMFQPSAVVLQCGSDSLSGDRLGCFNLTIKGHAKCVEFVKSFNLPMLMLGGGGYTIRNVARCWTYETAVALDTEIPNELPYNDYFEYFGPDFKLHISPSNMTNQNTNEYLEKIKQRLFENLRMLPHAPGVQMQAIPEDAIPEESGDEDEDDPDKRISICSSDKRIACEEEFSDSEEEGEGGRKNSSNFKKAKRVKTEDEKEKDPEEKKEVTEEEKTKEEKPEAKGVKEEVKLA
T1 sequence (Q9UKV0 604-1066 isoform Q9UKV0-5): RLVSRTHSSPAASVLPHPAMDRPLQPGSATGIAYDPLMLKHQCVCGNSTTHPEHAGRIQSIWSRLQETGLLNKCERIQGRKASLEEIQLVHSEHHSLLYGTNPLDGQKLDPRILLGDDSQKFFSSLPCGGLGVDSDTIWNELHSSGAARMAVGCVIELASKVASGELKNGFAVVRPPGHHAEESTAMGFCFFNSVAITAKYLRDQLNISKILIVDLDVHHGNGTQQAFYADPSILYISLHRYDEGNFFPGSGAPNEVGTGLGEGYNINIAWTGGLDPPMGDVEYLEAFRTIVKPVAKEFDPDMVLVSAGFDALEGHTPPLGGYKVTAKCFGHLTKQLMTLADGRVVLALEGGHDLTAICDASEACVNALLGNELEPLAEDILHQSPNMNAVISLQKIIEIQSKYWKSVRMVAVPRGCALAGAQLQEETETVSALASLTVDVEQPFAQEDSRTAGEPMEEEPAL
T3 sequence (Q9UQL6 656-1122 limits assumed): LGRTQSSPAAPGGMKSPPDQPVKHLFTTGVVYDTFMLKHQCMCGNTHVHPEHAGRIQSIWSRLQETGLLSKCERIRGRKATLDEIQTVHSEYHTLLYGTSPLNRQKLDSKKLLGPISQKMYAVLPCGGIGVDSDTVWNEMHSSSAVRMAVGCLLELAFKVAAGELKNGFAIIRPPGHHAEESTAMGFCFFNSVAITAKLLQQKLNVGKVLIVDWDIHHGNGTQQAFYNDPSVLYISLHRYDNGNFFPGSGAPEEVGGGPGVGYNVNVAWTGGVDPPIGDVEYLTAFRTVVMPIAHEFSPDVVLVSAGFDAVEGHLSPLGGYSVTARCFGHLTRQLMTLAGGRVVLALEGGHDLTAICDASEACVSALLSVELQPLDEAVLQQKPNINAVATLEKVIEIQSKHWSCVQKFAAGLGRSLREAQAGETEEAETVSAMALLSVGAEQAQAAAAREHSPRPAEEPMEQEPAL
T4 sequence (P56524 627-1084 limits assumed): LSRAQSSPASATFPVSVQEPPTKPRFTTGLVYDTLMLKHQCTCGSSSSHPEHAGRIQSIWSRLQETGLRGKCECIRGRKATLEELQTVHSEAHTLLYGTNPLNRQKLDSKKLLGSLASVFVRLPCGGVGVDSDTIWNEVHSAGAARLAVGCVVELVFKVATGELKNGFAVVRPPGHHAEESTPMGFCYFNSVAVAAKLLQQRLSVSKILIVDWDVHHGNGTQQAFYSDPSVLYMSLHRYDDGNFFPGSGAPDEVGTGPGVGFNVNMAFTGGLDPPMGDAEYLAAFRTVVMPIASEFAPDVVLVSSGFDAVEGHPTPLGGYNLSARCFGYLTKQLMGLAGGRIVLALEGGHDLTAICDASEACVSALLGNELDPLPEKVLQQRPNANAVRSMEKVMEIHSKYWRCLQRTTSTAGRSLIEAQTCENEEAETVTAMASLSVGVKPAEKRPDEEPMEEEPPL

| IC50 [1] [nM] | IC50 [2] [nM] | IC50 [3] [nM] | IC50 [4] [nM] | IC50 [5] [nM] | IC50 [6] [nM] | SMILES |
| --- | --- | --- | --- | --- | --- | --- |
| ≤ 10000 | ≤ 10000 | ≤ 10000 | ≤ 10000 | ≤ 10000 | > 10000 | FC(F)(F)c1nc(-c2ccc(CN(c3ccc(C4CC4)cn3)c3cnccn3)s2)no1 [Example AA, N-(5-Cyclopropylpyridin-2-yl)-N-({5-[5-(trifluoromethyl)-1,2,4-oxadiazol-3-yl]thiophen-2-yl}methyl)pyrazin-2-amine] |
| ≤ 1000 | ≤ 500 | ≤ 500 | ≤ 500 | ≤ 500 | > 10000 | FC(F)(F)c1nc(-c2ccc(CN(c3ccncc3)c3cnccn3)s2)no1 [Example AR, N-(Pyridin-4-yl)-N-({5-[5-(trifluoromethyl)-1,2,4-oxadiazol-3-yl]thiophen-2-yl}methyl)pyrazin-2-amine] |
| ≤ 10000 | ≤ 10000 | ≤ 500 | ≤ 500 | ≤ 1000 | > 10000 | Cn1cnc2cc(N(Cc3ccc(-c4noc(C(F)(F)F)n4)s3)c3cnccn3)ncc21 [Example AE, N-{3-Methyl-3H-imidazo[4,5-c]pyridin-6-yl}-N-({5-[5-(trifluoromethyl)-1,2,4-oxadiazol-3-yl]thiophen-2-yl}methyl)pyrazin-2-amine] |
| ≤ 10000 | ≤ 1000 | ≤ 1000 | ≤ 10000 | ≤ 10000 | > 10000 | FC(F)(F)c1nc(-c2ccc(CN(c3cnccn3)c3cc4nccnc4cn3)s2)no1 [Example AF, N-{Pyrido[3,4-b]pyrazin-7-yl}-N-({5-[5-(trifluoromethyl)-1,2,4-oxadiazol-3-yl]thiophen-2-yl}methyl)pyrazin-2-amine] |
| ≤ 10000 | ≤ 10000 | ≤ 10000 | ≤ 10000 | ≤ 10000 | > 10000 | FC(F)(F)c1nc(-c2ccc(CN(c3cnccn3)c3nccc(N4CCCC4)n3)s2)no1 [Example AV, N-(Pyrazin-2-yl)-4-(pyrrolidin-1-yl)-N-({5-[5-(trifluoromethyl)-1,2,4-oxadiazol-3-yl]thiophen-2-yl}methyl)pyrimidin-2-amine] |
| ≤ 10000 | ≤ 10000 | ≤ 10000 | ≤ 10000 | ≤ 10000 | > 10000 | FC(F)(F)c1nc(-c2ccc(CN(c3cnccn3)c3nccc4nccnc34)s2)no1 [Example AL, N-{Pyrido[3,4-b]pyrazin-5-yl}-N-({5-[5-(trifluoromethyl)-1,2,4-oxadiazol-3-yl]thiophen-2-yl}methyl)pyrazin-2-amine] |
| > 10000 | ≤ 10000 | ≤ 10000 | ≤ 10000 | ≤ 10000 | > 10000 | FC(F)(F)c1cnnc(N(Cc2ccc(-c3noc(C(F)(F)F)n3)s2)c2ccc(C(F)(F)F)nn2)c1 [Example EV, 6-(Trifluoromethyl)-N-({5-[5-(trifluoromethyl)-1,2,4-oxadiazol-3-yl]thiophen-2-yl}methyl)-N-[5-(trifluoromethyl)pyridazin-3-yl]pyridazin-3-amine] |
| > 10000 | ≤ 10000 | ≤ 10000 | > 10000 | > 10000 | > 10000 | FC(F)(F)c1cnnc(N(Cc2ccc(-c3noc(C(F)(F)F)n3)s2)c2ncccn2)c1 [Example EK, N-(Pyrimidin-2-yl)-5-(trifluoromethyl)-N-({5-[5-(trifluoromethyl)-1,2,4-oxadiazol-3-yl]thiophen-2-yl}methyl)pyridazin-3-amine] |
| ≤ 500 | ≤ 1000 | ≤ 500 | ≤ 500 | ≤ 500 | > 10000 | FC(F)(F)c1nc(-c2ccc(CN(c3cnccn3)c3cnc4[nH]ccc4n3)s2)no1 [Example BN, N-{5H-Pyrrolo[2,3-b]pyrazin-2-yl}-N-({5-[5-(trifluoromethyl)-1,2,4-oxadiazol-3-yl]thiophen-2-yl}methyl)pyrazin-2-amine] |
| ≤ 10000 | ≤ 10000 | ≤ 500 | ≤ 500 | ≤ 1000 | > 10000 | FC(F)(F)c1nc(-c2ccc(CN(c3cnccn3)c3ncccc3C3CC3)s2)no1 [Example AM, N-(3-Cyclopropylpyridin-2-yl)-N-({5-[5-(trifluoromethyl)-1,2,4-oxadiazol-3-yl]thiophen-2-yl}methyl)pyrazin-2-amine] |
| ≤ 10000 | ≤ 1000 | ≤ 10000 | ≤ 10000 | ≤ 10000 | ≤ 10000 | COc1cnc(N(Cc2ccc(-c3noc(C(F)(F)F)n3)s2)c2cnccn2)nc1 [Example AY, 5-Methoxy-N-(pyrazin-2-yl)-N-({5-[5-(trifluoromethyl)-1,2,4-oxadiazol-3-yl]thiophen-2-yl}methyl)pyrimidin-2-amine] |
| ≤ 10000 | ≤ 10000 | ≤ 10000 | ≤ 10000 | ≤ 10000 | > 10000 | Cn1ccc2nc(N(Cc3ccc(-c4noc(C(F)(F)F)n4)s3)c3cnccn3)cnc21 [Example BO, N-{5-Methyl-5H-pyrrolo[2,3-b]pyrazin-2-yl}-N-({5-[5-(trifluoromethyl)-1,2,4-oxadiazol-3-yl]thiophen-2-yl}methyl)pyrazin-2-amine] |
